Columns and labels:
B. subtilis, ATCC 9372 [1] = assay: growth inhibition assay by turbidity (OD 600 nm), Mueller Hinton II broth; type: cell-based, Bacillus subtilis; details: equivalent metallic Ag concentration
Procedure: (§1) Antibacterial properties of AgSiNP200 and AgSiNP50 were evaluated against Gram-positive, Bacillus subtilis (B. subtilis, ATCC 9372) and Staphylococcus aureus (S. aureus, ATTC 25923) and a Gram-negative, Escherichia coli (E. coli, ATCC 35218) organism. […] All the bacteria were obtained from the UCF Department of Molecular Biology and Microbiology Preparatory Laboratories) by Microbiology Department, University of Central Florida, Orlando. All the antibacterial assays were done using Mueller Hinton II medium (Fulka Analytical, USA).
(§2) The bacterial inhibition studies for the AgSiNP200 and AgSiNP50 were done using a method as described by Rastogi et al.^41. The procedure is briefly described below. Different concentrations of AgSiNP200 (metallic silver concentrations of 63.5 μg/ml, 38.1 μg/ml, 19.05 μg/ml, 9.53 μg/ml, 4.77 μg/ml, 2.68 μg/ml, 1.34 μg/ml, 953 ng/ml, 477 ng/ml, 95.3 ng/ml and 47.7 ng/ml) and AgSiNP50 (metallic silver concentrations of 30.24 μg/ml, 20.16 μg/ml, 10.08 μg/ml, 5.04 μg/ml, 2.52 μg/ml, 1.26 μg/ml, 630 ng/ml and 63 ng/ml) were prepared in sterile Mueller Hinton II broth in sterile tubes. To achieve uniform growth for this comparative study, all the tubes contained same amount of broth. We have used 0.85% of sterile saline to make up the volume to 0.9 ml in each tube. In the next step, 0.1 ml of 10^6 CFU/ml of bacteria culture was added to each tube. […]

S. aureus, ATTC 25923 = type: cell-based, Staphylococcus aureus; details: equivalent metallic Ag concentration
Procedure: as §1, §2

E. coli, ATCC 35218 [2] = assay: bacterial growth inhibition in LB broth using turbidity (Example 2); type: cell-based, Escherichia coli; details: 24 hours, 37° C., OD 600 nm
Procedure: (§3) Antibacterial properties of C—S CuSiNP and AgSiNG materials were evaluated against a gram positive Bacillus subtilis (B. subtilis, ATCC 9372) and a gram negative Escherichia coli (E. coli, ATCC 35218) organism. For all antibacterial assays, bacterial concentration of 10^5 cells/mL was considered. Copper sulfate with same metallic copper concentration was used as positive controls and silica nanoparticle (without Cu loading) was used as negative control.
(§4) Two sets of different concentrations of C—S CuSiNP were made in LB broth (0.49, 1.2, 2.4, 4.9, 7.2 and 9.8 ppm copper concentration) to a final volume of 10 mL. 250 μL (10^5 cells/mL) of E. coli and B. subtilis were added to set 1 and 2 respectively. Silica nanoparticle was used as negative control and copper sulfate with equivalent amount of copper was used as positive control. […]
(§5) The growth inhibitory effects of C—S CuSiNP and AgSiNG against E. coli and B. subtilis were studied in liquid media (FIG. 2.3 and FIG. 2.4). Bacterial growth with different concentrations of C—S CuSiNP and AgSiNG (0.49 to 9.8 μg mL^−1) was monitored after 24 hours of incubation at 37° C. by measuring the optical density at 600 nm using Teysche800 spectrophotometer. Since the turbidity of silica based material can interfere with the optical density reading, the background measurement was subtracted to calculate the final reading.

E. coli, ATCC 35218 [3] = type: cell-based, Escherichia coli; details: equivalent metallic Ag concentration
Procedure: as §1, §2

B. subtilis, ATCC 9372 [4] = assay: bacterial growth inhibition in LB broth using turbidity (Example 2); type: cell-based, Bacillus subtilis; details: 24 hours, 37° C., OD 600 nm
Procedure: as §3, §4, §5

Structure (SMILES): O=[N+]([O-])[O-].[Ag+] [Ag nitrate, silver nitrate]
- growth inhibition result in words (controls versus AgSiNP nanoformulations) (B. subtilis, ATCC 9372 [1]): no significant difference in growth inhibition results
- growth inhibition result in words (controls versus AgSiNP nanoformulations) (S. aureus, ATTC 25923): no significant difference in growth inhibition results
- silver concentration at which growth inhibition can be seen (E. coli, ATCC 35218 [2]): 2.4 ppm
- growth inhibition result in words (controls versus AgSiNP nanoformulations) (E. coli, ATCC 35218 [3]): no significant difference in growth inhibition results
- silver concentration at which growth inhibition can be seen (B. subtilis, ATCC 9372 [4]): 2.4 ppm

From patent US9491946B2, “Ag loaded silica nanoparticle/nanogel formulation, methods of making, and methods of use” (University of Central Florida Research Foundation, Inc., priority 2011, dated 2016)
